Counter-ions that a name gives are not always drawn.
These molecules were tested on hPSC-SCs. Conditions: not given.

SMILES	z.score.t
CN(C)CCOC(=O)COc1ccc(Cl)cc1 [Meclofenoxate hydrochloride]	−2.264
CCC1(c2cccc(O)c2)CCCCN(C)C1 (centres unmarked) [Meptazinol hydrochloride]	0.01078
COC(=O)Nc1nc2ccc(SC(C)C)cc2[nH]1 [Methiazole]	−1.263
COc1ccc2[nH]c3c(c2c1)CCN=C3C [Methoxy-6-harmalan]	−0.1216
Cc1cc(C(C)(C)CC(C)(C)C)ccc1OCCOCC[N+](C)(C)Cc1ccccc1.[Cl-] [Methyl benzethonium chloride]	−1.169
CC[C@@H](CO)NC(=O)[C@@H]1C=C2c3cccc4[nH]cc(c34)C[C@H]2N(C)C1 [Methylergometrine maleate]	1.669
C[C@H]1NC(=O)NC1=O [Methylhydantoin-5-(D)]	−0.9395
C[C@@H]1NC(=O)NC1=O [Methylhydantoin-5-(L)]	1.101
C[C@H]1C(=O)O[C@@H]2CCN3CC=C(COC(=O)[C@](C)(O)[C@]1(C)O)[C@H]23 [Monocrotaline]	0.5046
Cc1ccsc1/C=C/C1=NCCCN1C [Morantel tartrate]	−0.06439

Same assay, conditions: HTS viability of hPSC-SCs in the presence of 30 mM glucose; Prestwick library; Table S4

SMILES	z.score.t
CCN(CCCCOC(=O)c1ccc(OC)c(OC)c1)C(C)Cc1ccc(OC)cc1 (centres unmarked) [Mebeverine hydrochloride]	−0.3301
CN1CCc2c(c3ccccc3n2Cc2ccccc2)C1.O=S(=O)(O)c1cccc2c(S(=O)(=O)O)cccc12 [Mebhydroline 1,5-naphtalenedisulfonate]	0.7312
CNC1(C)C2CCC(C2)C1(C)C (centres unmarked) [Mecamylamine hydrochloride]	0.3097
C=C1c2c(Cl)ccc(O)c2C(=O)C2=C(O)[C@]3(O)C(=O)C(C(N)=O)=C(O)[C@@H](N(C)C)[C@@H]3[C@@H](O)[C@H]12.O=C(O)c1cc(S(=O)(=O)O)ccc1O [Meclocycline sulfosalicylate]	1.049
Cc1cccc(CN2CCN(C(c3ccccc3)c3ccc(Cl)cc3)CC2)c1 (centres unmarked) [Meclozine dihydrochloride]	−1.823
CC(=O)[C@H]1CC[C@H]2[C@@H]3C[C@H](C)C4=CC(=O)CC[C@]4(C)[C@H]3[C@@H](O)C[C@]12C [Medrysone]	0.1244
Cc1cccc(Nc2ccccc2C(=O)O)c1C [Mefenamic acid]	1.751
CCN(CC)CCNC(=O)COc1ccc(OC)cc1 [Mefexamide hydrochloride]	0.189
OC(c1cc(C(F)(F)F)nc2c(C(F)(F)F)cccc12)C1CCCCN1 (centres unmarked) [Mefloquine hydrochloride]	−1.637
CNC[C@H](O)[C@@H](O)[C@H](O)[C@H](O)CO [Meglumine]	−0.9741
COc1ccc2[nH]cc(CCNC(C)=O)c2c1 [Melatonin]	0.006455
Cc1cnc(NC(=O)C2=C(O)c3ccccc3S(=O)(=O)N2C)s1 [Meloxicam]	1.481
CC12CC3CC(C)(C1)CC(N)(C3)C2 [Memantine Hydrochloride]	−0.9598
CC1=CC(=O)c2ccccc2C1=O [Menadione]	−1.949
C[N+]1(C)CCCC(OC(=O)C(O)(c2ccccc2)c2ccccc2)C1 (centres unmarked) [Mepenzolate bromide]	0.03421
Cc1ccccc1OCC(O)CO (centres unmarked) [Mephenesin]	−1.753
CCC1(c2ccccc2)NC(=O)N(C)C1=O (centres unmarked) [Mephenytoin]	−0.9817
CCCNC(C)(C)COC(=O)c1ccccc1 [Meprylcaine hydrochloride]	−0.4953
Nc1ccc(O)c(C(=O)O)c1 [Mesalamine]	−0.5745
CN1CCCCC1CCN1c2ccccc2Sc2ccc([S+](C)[O-])cc21 (centres unmarked) [Mesoridazine besylate]	0.2816
C=N[C@@H](C(=O)N[C@@H]1C(=O)N2[C@@H]1SC(C)(C)[C@@H]2C(=O)O)c1ccccc1 [Metampicillin sodium salt]	−1.069
CNCC(O)c1ccc(O)c(OC)c1.Cl (stereo not drawn) [Metanephrine hydrochloride DL]	1.259
C[C@H](N)[C@H](O)c1cccc(O)c1 [Metaraminol bitartrate]	1.088
CN1C[C@H](CNC(=O)OCc2ccccc2)C[C@@H]2c3cccc4c3c(cn4C)C[C@H]21 [Metergoline]	1.211

SMILES	z.score.t
CN(C)C(=N)N=C(N)N [Metformin hydrochloride]	0.8639
CC(=O)OC(C)C[N+](C)(C)C (centres unmarked) [Methacholine chloride]	1.554
C=C1c2cccc(O)c2C(=O)C2=C(O)[C@]3(O)C(=O)C(C(N)=O)=C(O)[C@@H](N(C)C)[C@@H]3[C@@H](O)[C@H]12 [Methacycline hydrochloride]	−0.4684
CC[N+](C)(CC)CCOC(=O)C1c2ccccc2Oc2ccccc21 [Methantheline bromide]	−0.3173
CN(C)CCN(Cc1cccs1)c1ccccn1 [Methapyrilene hydrochloride]	0.1344
CC(=O)/N=c1/sc(S(N)(=O)=O)nn1C [Methazolamide]	−0.3678
Cn1cc[nH]c1=S [Methimazole]	−0.05622
CS(=N)(=O)CC[C@H](N)C(=O)O (some centres unmarked) [Methionine sulfoximine (L)]	1.124
CSc1ccc2c(c1)C(N1CCN(C)CC1)Cc1ccccc1S2.O=C(O)/C=C\C(=O)O (centres unmarked) [Methiothepin maleate]	−0.8821
COc1ccccc1OCC(O)COC(N)=O (centres unmarked) [Methocarbamol]	−1.392
CN(Cc1cnc2nc(N)nc(N)c2n1)c1ccc(C(=O)N[C@@H](CCC(=O)O)C(=O)O)cc1 [Methotrexate]	0.8875
COc1ccc2c(c1)N(C[C@H](C)CN(C)C)c1ccccc1S2.O=C(O)/C=C\C(=O)O [Methotrimeprazine maleat salt]	−1.008
COc1ccc(OC)c(C(O)C(C)N)c1 (centres unmarked) [Methoxamine hydrochloride]	1.064
COc1c2occc2cc2ccc(=O)oc12 [Methoxy-8-psoralen]	1.124
C[N+]1(C)[C@@H]2CC[C@H]1C[C@@H](OC(=O)C(CO)c1ccccc1)C2 (some centres unmarked) [Methylatropine nitrate]	1.238
C[C@](N)(Cc1ccc(O)c(O)c1)C(=O)O [Methyldopa (L, −)]	0.006455
CCOC(=O)[C@@](C)(N)Cc1ccc(O)c(O)c1 [Methyldopate hydrochloride]	−0.8464
C[C@H]1C[C@@H]2[C@H]([C@@H](O)C[C@@]3(C)[C@H]2CC[C@]3(O)C(=O)CO)[C@@]2(C)C=CC(=O)C=C12 [Methylprednisolone, 6-alpha]	0.7665
Cc1cc2c(cc1S(N)(=O)=O)S(=O)(=O)CCC2 [Meticrane]	−0.3156
CN1CCCC(CC2c3ccccc3Sc3ccccc32)C1 (centres unmarked) [Metixene hydrochloride]	−0.9654
CCN(CC)CCNC(=O)c1cc(Cl)c(N)cc1OC [Metoclopramide monohydrochloride]	1.024
Cc1ccccc1N1C(=O)c2cc(S(N)(=O)=O)c(Cl)cc2NC1C (centres unmarked) [Metolazone]	0.3637
CC(=O)Nc1c(I)c(C(=O)N[C@H]2C(O)O[C@H](CO)[C@@H](O)[C@@H]2O)c(I)c(N(C)C(C)=O)c1I (some centres unmarked) [Metrizamide]	1.421
Cc1ncc([N+](=O)[O-])n1CCO [Metronidazole]	1.259

SMILES	z.score.t
CC(C)(C(=O)c1cccnc1)c1cccnc1 [Metyrapone]	1.178
C[C@@]1(O)CCOC(=O)C1 [Mevalonic-D, L acid lactone]	0.2361
Cc1cccc(C)c1OCC(C)N (centres unmarked) [Mexiletine hydrochloride]	0.6648
CN1CCN2c3ccccc3Cc3ccccc3C2C1 (centres unmarked) [Mianserine hydrochloride]	0.8279
Clc1ccc(COC(Cn2ccnc2)c2ccc(Cl)cc2Cl)c(Cl)c1 (centres unmarked) [Miconazole]	−1.873
COc1ccc(OC)c(C(O)CNC(=O)CN)c1 (centres unmarked) [Midodrine hydrochloride]	0.5856
CC#C[C@]1(O)CC[C@H]2[C@@H]3CCC4=CC(=O)CCC4=C3[C@@H](c3ccc(N(C)C)cc3)C[C@@]21C [Mifepristone]	−0.8392
Cc1[nH]c(=O)c(C#N)cc1-c1ccncc1 [Milrinone]	0.3236
NC(Cn1ccc(=O)c(O)c1)C(=O)O (centres unmarked) [Mimosine]	0.7491
Cc1cc(-c2ccccc2)nnc1NCCN1CCOCC1 [Minaprine dihydrochloride]	−0.5003
CN(C)c1ccc(O)c2c1C[C@H]1C[C@H]3[C@H](N(C)C)C(O)=C(C(N)=O)C(=O)[C@@]3(O)C(O)=C1C2=O [Minocycline hydrochloride]	−1.319
Nc1cc(N2CCCCC2)nc(N)[n+]1[O-] [Minoxidil]	0.2479
O=C1c2c(O)ccc(O)c2C(=O)c2c(NCCNCCO)ccc(NCCNCCO)c21 [Mitoxantrone dihydrochloride]	−0.3936
O=C(NCCN1CCOCC1)c1ccc(Cl)cc1 [Moclobemide]	0.5822
CCc1c(C)[nH]c2c1C(=O)C(CN1CCOCC1)CC2 (centres unmarked) [Molindone hydrochloride]	−0.1759
CCOC(=O)[N-]c1cn(N2CCOCC2)n[o+]1 [Molsidomine]	0.713
C[C@@H]1C[C@H]2[C@@H]3CCC4=CC(=O)C=C[C@]4(C)[C@@]3(Cl)[C@@H](O)C[C@]2(C)[C@@]1(OC(=O)c1ccco1)C(=O)CCl [Mometasone furoate]	0.1979
CC[C@@]1([C@@H]2O[C@@H]([C@H]3O[C@@](O)(CO)[C@H](C)C[C@@H]3C)C[C@@H]2C)CC[C@H]([C@]2(C)CC[C@]3(C[C@H](O)[C@@H](C)[C@@H]([C@@H](C)[C@@H](OC)[C@H](C)C(=O)O)O3)O2)O1 [Monensin sodium salt]	−2.299
Oc1ccc(OCc2ccccc2)cc1 [Monobenzone]	0.557
CCOC(=O)Nc1ccc2c(c1)N(C(=O)CCN1CCOCC1)c1ccccc1S2 [Moricizine hydrochloride]	0.0827
Cl.N=C(N=C(N)N)N1CCOCC1 [Moroxidine hydrochloride]	1.464
CO[C@@]1(NC(=O)C(C(=O)O)c2ccc(O)cc2)C(=O)N2C(C(=O)O)=C(CSc3nnnn3C)CO[C@@H]21 (some centres unmarked) [Moxalactam disodium salt]	0.4105

— patent publication US20260053861A1, “CELL COMPOSITIONS AND METHODS OF USING THE SAME” (THE REGENTS OF THE UNIVERSITY OF CALIFORNIA, priority 2022, published 2026)
